Test [1] deals with CNS nicotinic receptors (thalamic synaptosomes). Nature of the test: Determination of ion flux from thalamic synaptosomes (^86 Rb+ efflux; receptor activation). It counts as biochemical, rat. The following applies: for Receptor Activation Emax: percent of Emax for tetramethylammonium. How it is done:
Determination of ion flux from thalamic synaptosomes
Rat brains were dissected and midbrain (thalamus and mesencephalon) removed. The midbrain was then placed into a tube on ice, homogenized, and centrifuged at 2800 rpm for 10 minutes. The supernatant was collected and centrifuged for another 20 minutes at 9650 rpm The resulting pellet was resuspended by trituration in 700 ul ice cold perfusion buffer. Synaptosomes were then loaded with ^86 Rb+ Ion efflux was determined using the methods of Marks et al., J. Pharmacol. Exp. Ther., Vol. 264, pp. 427-436 (1993). Total efflux was determined by subtraction of basal release from release at stimulation (total peak release). The ratio of the peak to baseline (Rp) was calculated for each concentration. A tetramethylammonium control (i.e., a full agonist to the receptor of interest) is used in each assay to compare each agonist's ability to stimulate rubidium efflux to the control. Emax values are reported as a percent of Emax for tetramethylammonium.

Test [2] addresses T1, ganglionic-type neuronal nicotinic receptors (PC12) (Rattus norvegicus, UniProt P04757+P12392).
T1 construct: Ganglionic effects were established on the rat pheochromocytoma clonal line PC12; endogenous in cells; host or cells: PC12 (rat pheochromocytoma)
Nature of the test: cell-based. The note with it: PC12, ^86 Rb^+ efflux, percentage of maximal activation induced by (S)-(-)-nicotine. From the text: Determination of Interaction with Ganglia
Ganglionic effects were established on the rat pheochromocytoma clonal line PC12, which is a continuous clonal cell line of neural crest origin derived from a tumor of the rat adrenal medulla expressing ganglionic-typeneuronal nicotinic receptors (see Whiting et al., Nature, Vol. 327, pp. 515-518 (1987); Lukas, J. Pharmacol. Exp. Ther., Vol. 251, pp. 175-182 (1989); Whiting et al., Mol. Brain Res., Vol. 10, pp. 61-70 (1990)). Discussion concerning the heterogeneity of nicotinic receptors subtypes is set forth in Lukas et al. Internatl. Review Neurobiol., Vol. 34, pp. 25-130 (1992). Acetylcholine nicotinic receptors expressed in rat ganglia share a very high degree of homology with their human counterparts. See, Fomasari et al., Neurosci. Lett., Vol. 111, pp. 351-356 (1990) and Chini et al., Proc. Natl. Acad. Sci. USA, Vol. 89, pp. 1572-1576 (1992 ). Both clonal cell lines described above were maintained in proliferative growth phase according to routine protocols (Bencherif et al., Mol. Cell, Neurosci., Vol. 2, pp. 52-65, (1991 ) and Bencheft et al., J. Pharmacol. Exp. Ther., Vol. 257, pp. 946-953 (1991)). Intact cells on dishes were used for functional studies. Routinely, sample aliquots were reserved for determination of protein concentration using the method of Bradford, Anal. Biochem., Vol. 72, pp. 248-254 (1976) with bovine serum albumin as the standard.
Nicotinic acetylcholine receptor (nAChR) function was assayed using ^86 Rb^+ efflux according to a method described by Lukas et al., Anal. Biochem., Vol. 175, pp. 212-218 (1.988). […] The medium was removed and ^86 Rb^+ was quantitated using Cerenkov detection (see Lukas et al., Anal. Biochem., Vol. 175, pp. 212-218 (1988)). Specific ion efflux was determined as the difference in isotope efflux between total and non-specific efflux samples. Dose-response curves were plotted and the concentration resulting in half maximal activation of specific ion flux through nicotinic receptors determined for human muscle and rat ganglionic preparations (EC50).

In test [3] the test system is dopamine release from striatal synaptosomes. Nature of the test: Determination of dopamine release (striatal synaptosomes). It counts as biochemical, rat (Sprague-Dawley). The following applies: rat striatal synaptosomes; for Dopamine Release Emax: percentage of release obtained with (S)-(-)-nicotine. How it is done: Determination of Dopamine Release
Dopamine release was measured by preparing synaptosomes from the striatal area of rat brain obtained from Sprague-Dawley rats generally according to the procedures set forth by Nagy et al. J. Neurochem., Vol. 43, pp. 1114-1123 (1984). Striata from 4 rats were homogenized in 2 ml of 0.32M sucrose buffered with 5 mM HEPES (pH 7.5), using a glass-Teflon tissue grinder. The homogenate was diluted to 5 ml with additional homogenization solution and centrifuged at 1,000 ×g for 10 min. This procedure was repeated on the new pellet and the resulting supernatant was centrifuged at 12,000 ×g for 20 min. A 3 layer discontinuous Percoll gradient consisting of 16 percent, 10 percent and 7.5 percent Percoil in HEPES-buffered sucrose was made with the final pellet dispersed in the top layer. After centrifugation at 15,000 ×g for 20 min., the synaptosomes were recovered above the 16 percent layer with a Pasteur pipette, diluted with 8 ml of perfusion buffer (128 mM NaCl, 2.4 mM KCl, 3.2 mM CaCl2, 1.2 KH2 PO4, 1.2 mM MgSO4, 25 mM HEPES pH 7.4, 10 mM dextrose, 1 mM ascorbate, 0.01 mM pargyline), and centrifuged at 15,000 ×g for 20 min. The new pellet was collected and re-suspended in perfusion buffer. The synaptosome suspension was incubated for 10 min. at 37 ° C. [^3 H]-Dopamine (Amersham, 40-60 Ci/mmol) was added to the suspension to give a final concentration of 0.1 uM, and the suspension was incubated for another 5 min. Using this method, 30 to 90 percent of the dopamine was taken up into the synaptosomes, as determined by scintillation counting following filtration through glass fiber filters soaked with 0.5 percent polyethyleneimine. A continuous perfusion system was used to monitor release following exposure to each ligand. Synaptosomes were loaded onto glass fiber filters (Gelman type A/E). Perfusion buffer was dripped onto the filters (0.2-0.3 ml/min.) and pulled through the filters with a peristaltic pump. Synaptosomes were washed with perfusion buffer for a minimum of 20 min. before addition of the ligand. After the addition of 0.2 ml of a solution containing various concentrations of ligand, the perfusate was collected into scintillation vials at 1 min. intervals and the dopamine released was quantified by scintillation counting. Peaks of radioactivity released above background were summed and the average basal release during that time was subtracted from the total. Release was expressed as a percentage of release obtained with an equal concentration of(S)--(-)--nicotine.

The target in test [4] is nicotinic receptors. Nature of the test: Binding of compounds to relevant receptor sites (inhibition of L-[^3 H]nicotine binding, rat brain membranes). On the set-up: species or system rat (Sprague-Dawley). The note with it: inhibition of L-[^3 H]nicotine (10 nM) binding. How it is done:
Rats (Sprague-Dawley) were maintained on a 12 hour light/dark cycle and were allowed free access to water and food supplied by Wayne Lab Blox, Madison, Wis. Animals used in the present studies weighed 200 to 250 g. Brain membrane preparations were obtained from brain tissue of either males or females.
Rats were killed by decapitation following anesthesia with 70% CO2. Brains were removed and placed on an ice-cold platform.
The incubation buffer was Krebs-Ringers HEPES containing 200 mM TRIS buffer, pH 7.5. The binding reaction was terminated by filtration of the protein containing bound ligand onto glass fiber filters (Micro Filtration Systems) that had been soaked in buffer containing 0.5 percent polyethyleneimine. Filtration vacuum was -50 to -100 torr. Each filter was washed five times with 3 ml of ice-cold buffer. […] Nonspecific binding was determined by inclusion of 10 uM nonradioactive nicotine in the incubations.
The inhibition of L-[^3 H]nicotine binding by test compounds was determined by including one of eight different concentrations of the test compound in the incubation.

The target of test [5] is T2, muscle-like nicotinic receptors (TE671/RD) (Homo sapiens, UniProt P02708+P07510+Q07001).
T2 construct: these cells express muscle-like nicotinic receptors; endogenous in cells; host or cells: TE671/RD (human embryonal rhabdomyosarcoma)
Nature of the test: cell-based. The note with it: ^86 Rb^+ efflux, read-out: Muscle Effect EC50. From the text:
Determination of Interaction with Muscle
Human muscle activation was established on the human clonal line TE671/RD which is derived from an embryonal rhabdomyosarcoma (Stratton et al., Carcinogen, Vol. 10, pp. 899-905 (1989)). As evidenced through pharmacological (Lukas, J. Pharmacol. Exp. Ther., Vol. 251, pp. 175-182 (1989)), electrophysiological (Oswald et al., Neurosci. Lett., Vol. 96, pp. 207-212 (1989)), and molecular biological studies (Luther et al., J. Neurosci., Vol. 9, pp. 1082-1096 (1989)) these cells express muscle-like nicotinic receptors. Nicotinic acetylcholine receptor (nAChR) function was assayed using ^86 Rb^+ efflux according to a method described by Lukas et al., Anal. Biochem., Vol. 175, pp. 212-218 (1988). Dose-response curves were plotted and the concentration resulting in half maximal activation of specific ion flux through nicotinic receptors determined for human muscle and rat ganglionic preparations (EC50).
Nicotinic acetylcholine receptor (nAChR) function was assayed using ^86 Rb^+ efflux according to a method described by Lukas et al., Anal. Biochem., Vol. 175, pp. 212-218 (1.988). […] The medium was removed and ^86 Rb^+ was quantitated using Cerenkov detection (see Lukas et al., Anal. Biochem., Vol. 175, pp. 212-218 (1988)). Specific ion efflux was determined as the difference in isotope efflux between total and non-specific efflux samples. […]

Here are results for five compounds from US5616716A, “(3-(5-ethoxypyridin)yl)-alkenyl 1 amine compounds” (priority 1996, dated 1997).

Each structure is given as a SMILES string.

One may read the EC50 as the concentration needed to bring the measured effect to its halfway point. For orientation: Emax means the size of the effect at its maximum, as opposed to the concentration needed. For orientation: Ki means a dissociation constant, usually derived from enzyme kinetics or from competition with a known ligand. The low end stands for a stronger hold on the target, the high end for a looser hold on the target.

T1 sequence (P04757 26-499): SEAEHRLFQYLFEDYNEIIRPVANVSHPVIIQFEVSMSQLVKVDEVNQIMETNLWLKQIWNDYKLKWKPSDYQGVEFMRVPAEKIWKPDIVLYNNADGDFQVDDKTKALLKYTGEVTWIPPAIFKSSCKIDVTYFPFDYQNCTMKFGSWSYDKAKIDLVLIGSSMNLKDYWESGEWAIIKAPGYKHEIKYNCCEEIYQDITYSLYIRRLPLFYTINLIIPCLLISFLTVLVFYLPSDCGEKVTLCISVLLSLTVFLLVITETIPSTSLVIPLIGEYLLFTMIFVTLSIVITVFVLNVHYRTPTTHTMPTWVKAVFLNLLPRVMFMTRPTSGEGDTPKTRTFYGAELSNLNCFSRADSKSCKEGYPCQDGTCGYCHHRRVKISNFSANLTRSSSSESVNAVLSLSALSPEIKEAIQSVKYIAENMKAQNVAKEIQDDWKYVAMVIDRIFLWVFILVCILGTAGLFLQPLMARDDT
T1 sequence (P12392 21-495): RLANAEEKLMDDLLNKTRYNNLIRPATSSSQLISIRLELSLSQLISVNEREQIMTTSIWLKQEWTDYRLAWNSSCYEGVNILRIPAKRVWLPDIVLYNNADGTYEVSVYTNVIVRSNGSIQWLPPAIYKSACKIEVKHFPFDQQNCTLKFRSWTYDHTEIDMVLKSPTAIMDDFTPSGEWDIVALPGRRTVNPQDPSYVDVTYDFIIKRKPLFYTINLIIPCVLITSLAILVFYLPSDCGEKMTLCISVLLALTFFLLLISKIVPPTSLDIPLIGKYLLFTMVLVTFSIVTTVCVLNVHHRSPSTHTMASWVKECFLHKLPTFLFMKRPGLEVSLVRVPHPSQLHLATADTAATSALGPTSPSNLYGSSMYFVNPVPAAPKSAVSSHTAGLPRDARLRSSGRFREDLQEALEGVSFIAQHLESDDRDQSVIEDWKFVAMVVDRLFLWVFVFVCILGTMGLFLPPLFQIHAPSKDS
T2 sequence (Q07001 22-517): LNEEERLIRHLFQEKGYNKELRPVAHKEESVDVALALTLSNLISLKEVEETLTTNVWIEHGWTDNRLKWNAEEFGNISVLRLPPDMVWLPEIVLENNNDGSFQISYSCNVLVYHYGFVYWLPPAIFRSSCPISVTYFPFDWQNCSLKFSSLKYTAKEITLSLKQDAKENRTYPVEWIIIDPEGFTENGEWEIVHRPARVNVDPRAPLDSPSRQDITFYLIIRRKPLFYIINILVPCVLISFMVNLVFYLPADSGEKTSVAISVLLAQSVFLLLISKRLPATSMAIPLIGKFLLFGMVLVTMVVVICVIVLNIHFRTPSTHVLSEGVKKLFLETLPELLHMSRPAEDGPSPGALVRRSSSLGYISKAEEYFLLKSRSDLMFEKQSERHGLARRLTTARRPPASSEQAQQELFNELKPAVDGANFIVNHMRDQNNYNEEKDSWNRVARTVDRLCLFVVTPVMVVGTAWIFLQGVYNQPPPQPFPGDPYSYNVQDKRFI
T2 sequence (P07510 23-517): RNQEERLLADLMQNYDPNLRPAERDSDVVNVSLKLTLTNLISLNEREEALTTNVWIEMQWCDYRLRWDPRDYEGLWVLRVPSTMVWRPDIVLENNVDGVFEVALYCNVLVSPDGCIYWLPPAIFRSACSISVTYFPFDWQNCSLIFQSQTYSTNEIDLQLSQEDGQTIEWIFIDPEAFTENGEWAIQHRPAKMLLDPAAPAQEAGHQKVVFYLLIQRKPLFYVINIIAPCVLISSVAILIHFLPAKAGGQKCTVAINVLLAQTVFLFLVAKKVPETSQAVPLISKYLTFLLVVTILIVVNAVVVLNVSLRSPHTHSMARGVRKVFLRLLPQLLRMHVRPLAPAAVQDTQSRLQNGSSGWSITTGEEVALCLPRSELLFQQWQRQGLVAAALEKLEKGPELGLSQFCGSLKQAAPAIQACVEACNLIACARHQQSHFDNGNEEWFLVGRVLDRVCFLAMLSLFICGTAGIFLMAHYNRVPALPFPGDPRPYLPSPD
T2 sequence (P11230 24-501, further chain): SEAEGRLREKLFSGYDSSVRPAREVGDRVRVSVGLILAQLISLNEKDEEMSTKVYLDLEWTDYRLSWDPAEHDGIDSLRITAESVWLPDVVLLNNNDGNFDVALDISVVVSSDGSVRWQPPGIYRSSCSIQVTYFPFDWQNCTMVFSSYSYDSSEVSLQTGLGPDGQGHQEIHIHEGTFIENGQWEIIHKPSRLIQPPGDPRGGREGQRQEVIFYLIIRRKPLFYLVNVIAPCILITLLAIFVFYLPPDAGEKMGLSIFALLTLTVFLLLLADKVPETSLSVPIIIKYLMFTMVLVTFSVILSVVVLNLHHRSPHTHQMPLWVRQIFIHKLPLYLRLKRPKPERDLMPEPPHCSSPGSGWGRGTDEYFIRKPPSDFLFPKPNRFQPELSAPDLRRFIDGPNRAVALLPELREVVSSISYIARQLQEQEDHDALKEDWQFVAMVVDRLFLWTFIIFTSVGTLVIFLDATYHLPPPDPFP
T2 sequence (P02708 21-457): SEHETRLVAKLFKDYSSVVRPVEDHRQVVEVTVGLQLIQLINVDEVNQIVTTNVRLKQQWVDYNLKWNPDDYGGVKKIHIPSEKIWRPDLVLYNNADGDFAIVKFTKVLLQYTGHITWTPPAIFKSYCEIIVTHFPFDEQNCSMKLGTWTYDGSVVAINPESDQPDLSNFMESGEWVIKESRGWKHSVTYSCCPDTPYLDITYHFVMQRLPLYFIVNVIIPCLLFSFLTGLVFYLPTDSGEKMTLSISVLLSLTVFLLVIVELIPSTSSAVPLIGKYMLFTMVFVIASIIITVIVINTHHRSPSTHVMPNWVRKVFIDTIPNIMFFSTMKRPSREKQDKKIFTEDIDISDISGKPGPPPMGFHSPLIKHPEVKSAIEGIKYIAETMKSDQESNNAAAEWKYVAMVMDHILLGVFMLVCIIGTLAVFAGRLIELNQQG

For the compound `CCOc1cncc(/C=C/CCNC)c1` [Sample No. 1, (E)-N-methyl-4-[3-(5-ethoxypyridin)yl]-3-buten-1-amine], in test [1], it took 269 nM to reach a half-maximal effect (EC50) and the “Receptor Activation Emax” value is recorded as 67%. In addition, the Emax in test [2] (PC-12, read-out: Ganglion Effect Emax) was determined as 0%. In addition, in test [3], the EC50 stood at 287 nM and the “Dopamine Release Emax” value is reported as 124%. Further, in test [4], the Ki was 9 nM.

Regarding `CNC(C)C/C=C/c1cccnc1` (centres unmarked) [Sample No. 2, (E)-N-methyl-5-(3-pyridinyl)-4-penten-2-amine], in test [1], the EC50 was 1700 nM and the “Receptor Activation Emax” value came to 35%. The “Ganglion Effect Emax” value in test [2] is listed as 6%. Moreover, in test [3], the EC50 is 21400 nM and the “Dopamine Release Emax” value was determined as 182%. Further, the affinity in test [4] corresponds to a Ki of 82 nM.

With `CNCC/C=C/c1cncc(OC)c1` [Sample No. 3, (E)-N-methyl-4-[3-(5-methoxypyridin)yl]-3-buten-1-amine], in test [1], a half-maximal response (EC50) required 470 nM and the “Receptor Activation Emax” value is given as 62%. The “Ganglion Effect Emax” value in test [2] was 0%. Further, in test [3], a half-maximal effect (EC50) was put at 2340 nM and the “Dopamine Release Emax” value turned out to be 106%. The same compound had a Ki in test [4] of 7 nM.

On to `CN1CCC[C@H]1c1cccnc1` [Sample No. C-1, (S)--(-)--nicotine, reference compound], for which the “Receptor Activation Emax” value in test [1] is reported as 87%. Moreover, the EC50 is 80000 nM in test [5] and 100 nM in test [3]. For the same compound, in test [3], the “Dopamine Release Emax” value is recorded as 100%.

With `CNCC/C=C/c1cccnc1` [Sample No. C-2, (E)-metanicotine, reference compound], in test [1], the EC50 was determined as 732 nM and the “Receptor Activation Emax” value is 79%. In test [3], a half-maximal response (EC50) required 1160 nM and the “Dopamine Release Emax” value worked out at 81%.
